From PubChem BioAssay AID330 (DTP/NCI, 2004)
Values joined by “and” are separate entries in the source; they are usually repeats but may differ in a detail not shown here. Equal entries are not always repeated. Inconclusive results and toxic doses are left out. Rule for the calls: active = survival T/C of 150% or more; inactive = T/C below 125% in these data.

System: P388 leukemia ip, CD2F1 mice, survival T/C
Assay: NCI In Vivo Anticancer Drug Screen. Data for tumor model P388 Leukemia (intraperitoneal) in CD2F1 (CDF1) mice
Conditions: endpoint: median survival time, higher = longer survival
Method in brief: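 Mice carrying the transplanted tumor received test compound or vehicle. Survival was recorded in each group, and the value is the treated-group measurement divided by that of the vehicle-treated control group.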

[1] = dose: 100.0 mg/kg/injection, schedule: Q04DX003 (ip), vehicle: saline
[2] = dose: 50.0 mg/kg/injection, schedule: Q01DX009 (ip), vehicle: Klucel (hydroxypropylcellulose) (HPC)
[3] = dose: 100.0 mg/kg/injection, schedule: Q01DX009 (ip), vehicle: Klucel (hydroxypropylcellulose) (HPC)
[4] = dose: 200.0 mg/kg/injection, schedule: Q01DX009 (ip), vehicle: Klucel (hydroxypropylcellulose) (HPC)
[5] = dose: 50.0 mg/kg/injection, schedule: Q01DX009 (ip), vehicle: saline with Tween-80
[6] = dose: 100.0 mg/kg/injection, schedule: Q01DX009 (ip), vehicle: saline with Tween-80
[7] = dose: 200.0 mg/kg/injection, schedule: Q01DX009 (ip), vehicle: saline with Tween-80
[8] = dose: 50.0 mg/kg/injection, schedule: Q01DX005 (ip), vehicle: saline with Tween-80
[9] = dose: 100.0 mg/kg/injection, schedule: Q01DX005 (ip), vehicle: saline with Tween-80
[10] = dose: 200.0 mg/kg/injection, schedule: Q01DX005 (ip), vehicle: saline with Tween-80
[11] = dose: 25.0 mg/kg/injection, schedule: Q01DX009 (ip), vehicle: Klucel (hydroxypropylcellulose) (HPC)
[12] = dose: 50.0 mg/kg/injection, schedule: Q01DX009 (ip), vehicle: saline
[13] = dose: 100.0 mg/kg/injection, schedule: Q01DX009 (ip), vehicle: saline
[14] = dose: 50.0 mg/kg/injection, schedule: Q01DX005 (ip), vehicle: Klucel (hydroxypropylcellulose) (HPC)
[15] = dose: 100.0 mg/kg/injection, schedule: Q01DX005 (ip), vehicle: Klucel (hydroxypropylcellulose) (HPC)
[16] = dose: 200.0 mg/kg/injection, schedule: Q01DX005 (ip), vehicle: Klucel (hydroxypropylcellulose) (HPC)

Measured: T/C

CC[C@@]12CN3CCc4c([nH]c5ccccc45)[C@@](C(=O)OC)(c4cc5c(cc4OC)N(C=O)[C@H]4[C@@](O)(C(=O)OC)[C@H](OC(C)=O)[C@]6(CC)C=CCN7CC[C@]54[C@@H]76)C[C@H](C3=O)[C@@H]1O2
inactive: dose: 4.0 mg/kg/injection, schedule: Q01DX001 (ip), vehicle: water 113 % of control and 118 % of control | dose: 8.0 mg/kg/injection, schedule: Q01DX001 (ip), vehicle: water 115 % of control and 116 % of control | dose: 32.0 mg/kg/injection, schedule: Q01DX001 (ip), vehicle: water 118 % of control

C[N+](C)(C)CCC(=O)c1ccc(Cl)cc1
inactive: dose: 3.13 mg/kg/injection, schedule: Q01DX009 (ip), vehicle: saline 109 % of control | dose: 6.25 mg/kg/injection, schedule: Q01DX009 (ip), vehicle: saline 96 % of control | dose: 12.5 mg/kg/injection, schedule: Q01DX009 (ip), vehicle: saline 103 % of control

N#C/C=C/C#N
inactive: dose: 0.15 mg/kg/injection, schedule: Q01DX009 (ip), vehicle: saline 100 % of control | dose: 0.3 mg/kg/injection, schedule: Q01DX009 (ip), vehicle: saline 109 % of control | dose: 0.6 mg/kg/injection, schedule: Q01DX009 (ip), vehicle: saline 113 % of control

CCOC([O-])=N/C(=N/[n+]1ccc(C)cc1)c1ccccc1
inactive: [1] 104 % of control | dose: 200.0 mg/kg/injection, schedule: Q04DX003 (ip), vehicle: saline 106 % of control

Cc1cccc(Cl)c1NC(=O)C(C)C
inactive: dose: 100.0 mg/kg/injection, schedule: Q04DX003 (ip), vehicle: other 104 % of control | dose: 200.0 mg/kg/injection, schedule: Q04DX003 (ip), vehicle: other 109 % of control | dose: 400.0 mg/kg/injection, schedule: Q04DX003 (ip), vehicle: other 90 % of control

Cc1ccc(C(=O)CS(=O)(=O)c2ccc(C)cc2)cc1
inactive: [2] 101 % of control | [3] 98 % of control | [4] 96 % of control

CC(C)(C)CC(C)(C)c1ccc(OCc2cccc(F)c2)cc1
inactive: [5] 97 % of control | [6] 97 % of control | [7] 100 % of control

CC12CC3(C)CC(C)(C1)CC(C(Cl)C(=O)NC(C)(C)C)(C2)C3 (stereo not drawn)
inactive: [2] 97 % of control | [3] 93 % of control | [4] 107 % of control

O=C1NC(=O)C(O)(C2=C(O)CCCC2=O)C(=O)N1
inactive: [8] 99 % of control | [9] 103 % of control | [10] 94 % of control

O=C(C(c1ccccc1)c1ccccc1)N1CCCCC1c1ccccc1 (stereo not drawn)
inactive: [8] 102 % of control | [9] 92 % of control | [10] 97 % of control

CC(F)C(N)C(=O)O (stereo not drawn)
inactive: dose: 6.25 mg/kg/injection, schedule: Q01DX009 (ip), vehicle: Klucel (hydroxypropylcellulose) (HPC) 108 % of control and 117 % of control | dose: 12.5 mg/kg/injection, schedule: Q01DX009 (ip), vehicle: Klucel (hydroxypropylcellulose) (HPC) 110 % of control and 118 % of control | [11] 116 % of control | [12] 106 % of control | [13] 124 % of control

CCCCN(CCCC)C(Cl)=Nc1ccccc1
inactive: [11] 119 % of control | [2] 120 % of control | [3] 112 % of control

Cc1c(Cl)cc[n+]([O-])c1C
inactive: dose: 25.0 mg/kg/injection, schedule: Q01DX009 (ip), vehicle: other 100 % of control | dose: 50.0 mg/kg/injection, schedule: Q01DX009 (ip), vehicle: other 108 % of control | dose: 100.0 mg/kg/injection, schedule: Q01DX009 (ip), vehicle: other 108 % of control | dose: 200.0 mg/kg/injection, schedule: Q01DX009 (ip), vehicle: other 107 % of control | dose: 400.0 mg/kg/injection, schedule: Q01DX009 (ip), vehicle: other 110 % of control

C[N+](C)(CC(=O)Nc1ccc(Cl)c(Cl)c1)CC(=O)c1ccc(Cl)c(Cl)c1
inactive: dose: 25.0 mg/kg/injection, schedule: Q04DX003 (ip), vehicle: saline with Tween-80 100 % of control | dose: 50.0 mg/kg/injection, schedule: Q04DX003 (ip), vehicle: saline with Tween-80 100 % of control | dose: 100.0 mg/kg/injection, schedule: Q04DX003 (ip), vehicle: saline with Tween-80 90 % of control

COC(=O)C1CC(OC(C)=O)C(O)C(O)C1OC(C)=O.[O]=[Os]=[O] (stereo not drawn)
inactive: dose: 200.0 mg/kg/injection, schedule: Q01DX001 (ip), vehicle: saline 123 % of control

O=C(Nc1ccccc1C1=NCCN1)c1ccc(C(=O)Nc2ccccc2C2=NCCN2)cc1
inactive: [14] 96 % of control | [15] 87 % of control | [16] 91 % of control

O=[N+]([O-])O.O=[N+]([O-])O.[NH-]C(c1ccccc1)C([NH-])c1ccccc1.[Pt+2] (stereo not drawn)
active: dose: 6.25 mg/kg/injection, schedule: Q04DX002 (ip), vehicle: saline 161 % of control | dose: 12.5 mg/kg/injection, schedule: Q04DX002 (ip), vehicle: saline 154 % of control | dose: 25.0 mg/kg/injection, schedule: Q04DX002 (ip), vehicle: saline 154 % of control

O=C(NO)c1cccc2ccccc12
inactive: [14] 106 % of control | [15] 106 % of control | [16] 113 % of control

CCS/C(N)=C(\C#N)C(SCC)(SCC)SCC
inactive: dose: 50.0 mg/kg/injection, schedule: Q04DX003 (ip), vehicle: saline 107 % of control | [1] 106 % of control

CN(C)S(=O)(=O)Nc1ccccn1
inactive: [5] 106 % of control | [6] 92 % of control | [7] 86 % of control

COc1ccc(-c2nn(C)c3c2C(=O)C=CC3=O)cc1OC
inactive: dose: 100.0 mg/kg/injection, schedule: Q01DX001 (ip), vehicle: Klucel (hydroxypropylcellulose) (HPC) 92 % of control | dose: 200.0 mg/kg/injection, schedule: Q01DX001 (ip), vehicle: Klucel (hydroxypropylcellulose) (HPC) 106 % of control | dose: 400.0 mg/kg/injection, schedule: Q01DX001 (ip), vehicle: Klucel (hydroxypropylcellulose) (HPC) 95 % of control

CCN(CC)CC[n+]1ccc2c(C)c3[nH]c4ccccc4c3c(C)c2c1
inactive: dose: 0.63 mg/kg/injection, schedule: Q04DX002 (ip), vehicle: water 110 % of control | dose: 0.78 mg/kg/injection, schedule: Q04DX003 (ip), vehicle: water 106 % of control | dose: 1.25 mg/kg/injection, schedule: Q04DX002 (ip), vehicle: water 115 % of control | dose: 1.56 mg/kg/injection, schedule: Q04DX003 (ip), vehicle: water 107 % of control and 120 % of control | dose: 2.5 mg/kg/injection, schedule: Q04DX002 (ip), vehicle: water 122 % of control | dose: 3.12 mg/kg/injection, schedule: Q04DX003 (ip), vehicle: water 123 % of control | dose: 6.25 mg/kg/injection, schedule: Q04DX003 (ip), vehicle: water 124 % of control | dose: 12.5 mg/kg/injection, schedule: Q04DX003 (ip), vehicle: water 124 % of control

c1ccc(SCCC(Sc2ccccc2)Sc2ccccc2)cc1
inactive: [12] 100 % of control | [13] 106 % of control | dose: 200.0 mg/kg/injection, schedule: Q01DX009 (ip), vehicle: saline 106 % of control

Cc1cc(NCCN(C(C)C)C(C)C)nc(/N=C(\N)Nc2ccc(Cl)c(C(F)(F)F)c2)n1
inactive: dose: 10.0 mg/kg/injection, schedule: Q04DX003 (ip), vehicle: Klucel (hydroxypropylcellulose) (HPC) 107 % of control and 123 % of control | dose: 20.0 mg/kg/injection, schedule: Q04DX003 (ip), vehicle: Klucel (hydroxypropylcellulose) (HPC) 123 % of control

CC(C)(C)c1cc2c3c(c1)C(C(F)(F)F)(C(F)(F)F)OS3(=O)(O)OC2(C(F)(F)F)C(F)(F)F
inactive: dose: 25.0 mg/kg/injection, schedule: Q01DX005 (ip), vehicle: saline with Tween-80 100 % of control | [8] 98 % of control | [9] 103 % of control

CN1c2cccc[c]2[Sn]([CH3])([CH3])[c]2ccccc21
inactive: dose: 30.0 mg/kg/injection, schedule: Q01DX005 (ip), vehicle: saline with Tween-80 115 % of control | dose: 60.0 mg/kg/injection, schedule: Q01DX005 (ip), vehicle: saline with Tween-80 113 % of control and 123 % of control | dose: 120.0 mg/kg/injection, schedule: Q01DX005 (ip), vehicle: saline with Tween-80 124 % of control

Cc1ccccc1[B-]12OCC[N+]1(CNC(=O)c1ccccc1O)CCO2 (stereo not drawn)
inactive: [14] 106 % of control | [15] 105 % of control | [16] 105 % of control

O=c1c2ccccc2nc(C(F)(F)F)n1CCc1c[nH]c2ccccc12
inactive: [14] 93 % of control | [15] 92 % of control | [16] 98 % of control
